Laboratory results from paper PMC9607427, “Novel 7-Chloro-(4-thioalkylquinoline) Derivatives: Synthesis and Antiproliferative Activity through Inducing Apoptosis and DNA/RNA Damage” (Pharmaceuticals, 2022).

| melting point | Compound |
| --- | --- |
| 122 to 124 °C | O=C(OCCCSc1ccnc2cc(Cl)ccc12)c1ccc(C(F)(F)F)cc1 [Compound 38, 3-[(7-Chloroquinolin-4-yl)sulfanyl]propyl-4-(trifluoromethyl)benzoate] |
| 91 to 92 °C | Cc1ccc([N+](=O)[O-])c(C(=O)OCCCSc2ccnc3cc(Cl)ccc23)c1 [Compound 36, 3-[(7-Chloroquinolin-4-yl)sulfanyl]propyl-5-methyl-2-nitrobenzoate] |
| 88 to 89 °C | O=C(OCCCSc1ccnc2cc(Cl)ccc12)c1ccc(Cl)cc1Cl [Compound 34, 3-[(7-Chloroquinolin-4-yl)sulfanyl]propyl-2,4-dichlorobenzoate] |
| 151 to 153 °C | COc1cc(OC)c(C(=O)OCC[S+]([O-])c2ccnc3cc(Cl)ccc23)cc1OC (centres unmarked) [Compound 45, 2-[(7-Chloroquinolin-4-yl)sulfinyl]ethyl-2,4,5-trimethoxybenzoate] |
| 112 to 113 °C | O=C(OCCCSc1ccnc2cc(Cl)ccc12)c1ccccc1F [Compound 40, 3-[(7-Chloroquinolin-4-yl)sulfanyl]propyl-2-fluorobenzoate] |
| 96 to 98 °C | O=C(OCCCSc1ccnc2cc(Cl)ccc12)c1cccc(Cl)c1 [Compound 33, 3-[(7-Chloroquinolin-4-yl)sulfanyl]propyl-3-chlorobenzoate] |
| 138 to 140 °C | COc1ccc(C(=O)OCCCSc2ccnc3cc(Cl)ccc23)cc1[N+](=O)[O-] [Compound 35, 3-[(7-Chloroquinolin-4-yl)sulfanyl]propyl-4-methoxy-3-nitrobenzoate] |
| 110 °C | COc1cccc(C(=O)OCC[S+]([O-])c2ccnc3cc(Cl)ccc23)c1OC (centres unmarked) [Compound 43, 2-[(7-Chloroquinolin-4-yl)sulfinyl]ethyl-2,3-dimethoxybenzoate] |
| 112 to 113 °C | COc1ccc(OC)c(C(=O)OCC[S+]([O-])c2ccnc3cc(Cl)ccc23)c1 (centres unmarked) [Compound 44, 2-[(7-Chloroquinolin-4-yl)sulfinyl]ethyl-2,5-dimethoxybenzoate] |
| 136 to 138 °C | Cc1cc(C)cc(C(=O)OCCCSc2ccnc3cc(Cl)ccc23)c1 [Compound 37, 3-[(7-Chloroquinolin-4-yl)sulfanyl]propyl-3,5-dimethylbenzoate] |
| 126 to 128 °C | COc1ccc(C(=O)OCC[S+]([O-])c2ccnc3cc(Cl)ccc23)cc1 (centres unmarked) [Compound 42, 2-[(7-Chloroquinolin-4-yl)sulfinyl]ethyl-4-methoxybenzoate] |
| 88 to 90 °C | CC(C)(C)c1ccc(C(=O)OCCCSc2ccnc3cc(Cl)ccc23)cc1 [Compound 39, 3-[(7-Chloroquinolin-4-yl)sulfanyl]propyl-4-tert-butylbenzoate] |
| 144 to 146 °C | COc1cc(C(=O)OCC[S+]([O-])c2ccnc3cc(Cl)ccc23)cc(OC)c1OC (centres unmarked) [Compound 46, 2-[(7-Chloroquinolin-4-yl)sulfinyl]ethyl-3,4,5-trimethoxybenzoate] |

The remaining lines, values behind:

| Compound | melting point |
| --- | --- |
| O=C(OCCSc1ccnc2cc(Cl)ccc12)c1ccccc1Cl [Compound 15, 2-[(7-Chloroquinolin-4-yl)sulfanyl]ethyl 2-chlorobenzoate] | 108 °C |
| O=C(OCCCSc1ccnc2cc(Cl)ccc12)c1ccccc1Cl [Compound 32, 3-[(7-Chloroquinolin-4-yl)sulfanyl]propyl-2-chlorobenzoate] | 100 to 102 °C |
| COc1cc(OC)cc(C(=O)OCCSc2ccnc3cc(Cl)ccc23)c1 [Compound 11, 2-[(7-Chloroquinolin-4-yl)sulfanyl]ethyl 3,5-dimethoxybenzoate] | 100 to 102 °C |
| O=C(OCCSc1ccnc2cc(Cl)ccc12)c1ccc(C(F)(F)F)cc1 [Compound 20, 2-[(7-Chloroquinolin-4-yl)sulfanyl]ethyl 4-(trifluoromethyl)benzoate] | 134 to 136 °C |
| COc1cc(C(=O)OCCCSc2ccnc3cc(Cl)ccc23)cc(OC)c1OC [Compound 30, 3-[(7-Chloroquinolin-4-yl)sulfanyl]propyl-3,4,5-trimethoxybenzoate] | 98 to 100 °C |
| COc1cc(OC)c(C(=O)OCCCSc2ccnc3cc(Cl)ccc23)cc1OC [Compound 29, 3-[(7-Chloroquinolin-4-yl)sulfanyl]propyl-2,4,5-trimethoxybenzoate] | 118 to 120 °C |
| Cc1ccc([N+](=O)[O-])c(C(=O)OCCSc2ccnc3cc(Cl)ccc23)c1 [Compound 18, 2-[(7-Chloroquinolin-4-yl)sulfanyl]ethyl 5-methyl-2-nitrobenzoate] | 93 to 95 °C |
| CC(C)(C)c1ccc(C(=O)OCCSc2ccnc3cc(Cl)ccc23)cc1 [Compound 21, 2-[(7-Chloroquinolin-4-yl)sulfanyl]ethyl-4-tert-butylbenzoate] | 120 to 122 °C |
| COc1ccc(OC)c(C(=O)OCCCSc2ccnc3cc(Cl)ccc23)c1 [Compound 26, 3-[(7-Chloroquinolin-4-yl)sulfanyl]propyl-2,5-dimethoxybenzoate] | 97 to 98 °C |
| COc1ccc(C(=O)OCCSc2ccnc3cc(Cl)ccc23)cc1 [Compound 5, 2-[(7-Chloroquinolin-4-yl)sulfanyl]ethyl-4-methoxybenzoate] | 116 to 118 °C |
| COc1cccc(OC)c1C(=O)OCCSc1ccnc2cc(Cl)ccc12 [Compound 9, 2-[(7-Chloroquinolin-4-yl)sulfanyl]ethyl 2,6-dimethoxybenzoate] | 116 to 118 °C |
| COc1ccc(C(=O)OCCSc2ccnc3cc(Cl)ccc23)cc1[N+](=O)[O-] [Compound 17, 2-[(7-Chloroquinolin-4-yl)sulfanyl]ethyl 4-methoxy-3-nitrobenzoate] | 171 to 173 °C |
| COc1ccccc1C(=O)OCCSc1ccnc2cc(Cl)ccc12 [Compound 22, 2-[(7-Chloroquinolin-4-yl)sulfanyl]ethyl-2-methoxybenzoate] | 98 to 99 °C |
| COc1ccc(C(=O)OCCCSc2ccnc3cc(Cl)ccc23)c(OC)c1 [Compound 25, 3-[(7-Chloroquinolin-4-yl)sulfanyl]propyl-2,4-dimethoxybenzoate] | 74 to 76 °C |
| COc1ccc(C(=O)OCCSc2ccnc3cc(Cl)ccc23)c(OC)c1OC [Compound 12, 2-[(7-Chloroquinolin-4-yl)sulfanyl]ethyl 2,3,4-trimethoxybenzoate] | 94 to 96 °C |
| COc1cc(OC)c(C(=O)OCCSc2ccnc3cc(Cl)ccc23)cc1OC [Compound 13, 2-[(7-Chloroquinolin-4-yl)sulfanyl]ethyl 2,4,5-trimethoxybenzoate] | 134 to 135 °C |
| COc1ccccc1C(=O)OCCCSc1ccnc2cc(Cl)ccc12 [Compound 31, 3-[(7-Chloroquinolin-4-yl)sulfanyl]propyl-2-methoxybenzoate] | 95 to 97 °C |
| COc1cc(C(=O)OCCSc2ccnc3cc(Cl)ccc23)cc(OC)c1OC [Compound 14, 2-[(7-Chloroquinolin-4-yl)sulfanyl]ethyl 3,4,5-trimethoxybenzoate] | 139 to 140 °C |
| COc1cccc(C(=O)OCCSc2ccnc3cc(Cl)ccc23)c1OC [Compound 6, 2-[(7-Chloroquinolin-4-yl)sulfanyl]ethyl 2,3-dimethoxybenzoate] | 108 to 109 °C |
| COc1ccc(OC)c(C(=O)OCCSc2ccnc3cc(Cl)ccc23)c1 [Compound 8, 2-[(7-Chloroquinolin-4-yl)sulfanyl]ethyl-2,5-dimethoxybenzoate] | 98 to 100 °C |
| COc1ccc(C(=O)OCCCSc2ccnc3cc(Cl)ccc23)c(OC)c1OC [Compound 28, 3-[(7-Chloroquinolin-4-yl)sulfanyl]propyl-2,3,4-trimethoxybenzoate] | 84 °C |
| COc1ccc(C(=O)OCCSc2ccnc3cc(Cl)ccc23)cc1OC [Compound 10, 2-[(7-Chloroquinolin-4-yl)sulfanyl]ethyl 3,4-dimethoxybenzoate] | 109 to 110 °C |
| COc1cc(OC)cc(C(=O)OCCCSc2ccnc3cc(Cl)ccc23)c1 [Compound 27, 3-[(7-Chloroquinolin-4-yl)sulfanyl]propyl-3,5-dimethoxybenzoate] | 148 °C |
| COc1ccc(C(=O)OCCSc2ccnc3cc(Cl)ccc23)c(OC)c1 [Compound 7, 2-[(7-Chloroquinolin-4-yl)sulfanyl]ethyl 2,4-dimethoxybenzoate] | 107 to 108 °C |
| COc1ccc(C(=O)OCCCSc2ccnc3cc(Cl)ccc23)cc1 [Compound 23, 3-[(7-Chloroquinolin-4-yl)sulfanyl]propyl-4-methoxybenzoate] | 106 to 108 °C |
| COc1cccc(C(=O)OCCCSc2ccnc3cc(Cl)ccc23)c1OC [Compound 24, 3-[(7-Chloroquinolin-4-yl)sulfanyl]propyl-2,3-dimethoxybenzoate] | 78 to 80 °C |
| Cc1cc(C)cc(C(=O)OCCSc2ccnc3cc(Cl)ccc23)c1 [Compound 19, 2-[(7-Chloroquinolin-4-yl)sulfanyl]ethyl 3,5-dimethylbenzoate] | 102 to 104 °C |
| O=C(OCCSc1ccnc2cc(Cl)ccc12)c1cccc(Cl)c1 [Compound 16, 2-[(7-Chloroquinolin-4-yl)sulfanyl]ethyl 3-chlorobenzoate] | 94 to 96 °C |
